Where two headings read alike, the source gives them in different places.
Assays:
[1] = test system: Key Grass and Sedge Weeds as well as Grass Crops; assay: Post-emergent Test II herbicidal activity (Table 16); format: in vivo; conditions: post-emergence, 336 h, 14 d; for pest or weed control at 35 g/ha: 35 g ai/ha; for pest or weed control at 70 g/ha: 70 g ai/ha; for pest or weed control at 140 g/ha: 140 g ai/ha
Summary of the method: (§1)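 Herbicidal effect scored as percent visual injury, 14 d after post-emergent application. Spray solutions contained acetone, DMSO, isopropyl alcohol, crop oil concentrate and surfactant, applied at 187 L/ha to young plants (1-2 true leaves).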

[2] = test system: Key Broadleaf Weed and Crop Species; assay: Post-emergent Test II herbicidal activity (Table 15); format: in vivo; conditions: post-emergence, 336 h, 14 d; for pest or weed control at 35 g/ha: 35 g ai/ha; for pest or weed control at 70 g/ha: 70 g ai/ha; for pest or weed control at 140 g/ha: 140 g ai/ha
Summary of the method: as §1

[3] = Cyperus esculentus, yellow nutsedge (Cyperus esculentus), read-out: Visual Growth Reduction (%) 14 Days After Application, CYPES
[4] = Echinochloa crus-galli, barnyardgrass (Echinochloa crus-galli), read-out: Visual Growth Reduction (%) 14 Days After Application, ECHCG
[5] = Oryza sativa, rice (Oryza sativa), read-out: Visual Growth Reduction (%) 14 Days After Application, ORYSA
[6] = Setaria faberi, giant foxtail (Setaria faberi), read-out: Visual Growth Reduction (%) 14 Days After Application, SETFA
[7] = Triticum aestivum, wheat, spring (Triticum aestivum), read-out: Visual Growth Reduction (%) 14 Days After Application, TRZAS
[8] = Zea mays, maize, corn (Zea mays), read-out: Visual Growth Reduction (%) 14 Days After Application, ZEAMX
[9] = Abutilon theophrasti, velvetleaf (Abutilon theophrasti), read-out: Visual Growth Reduction (%) 14 Days After Application, ABUTH
[10] = Amaranthus retroflexus, redroot pigweed (Amaranthus retroflexus), read-out: Visual Growth Reduction (%) 14 Days After Application, AMARE
[11] = Brassica napus, oilseed rape, canola (Brassica napus), read-out: Visual Growth Reduction (%) 14 Days After Application, BRSNN
[12] = Chenopodium album, lambsquarters (Chenopodium album), read-out: Visual Growth Reduction (%) 14 Days After Application, CHEAL
[13] = Euphorbia heterophylla, wild poinsettia (Euphorbia heterophylla), read-out: Visual Growth Reduction (%) 14 Days After Application, EPHHL
[14] = Helianthus annuus, sunflower (Helianthus annuus), read-out: Visual Growth Reduction (%) 14 Days After Application, HELAN

Question: For `Nc1c(F)c(-c2ccc3occc3c2)nc(C(=O)O)c1Cl` [Compound 2.02], which pest or weed control at 35 g/ha [1, 3] is on record?
Answer: Its pest or weed control at 35 g/ha is 0 to 29%.

Question: What about the pest or weed control at 70 g/ha [1, 3] of the same molecule?
Answer: Its pest or weed control at 70 g/ha is 0 to 29%.

Question: What about the pest or weed control at 140 g/ha [1, 3] of the same molecule?
Answer: Its pest or weed control at 140 g/ha is 0 to 29%.

Question: And the pest or weed control at 35 g/ha [1, 4]?
Answer: Its pest or weed control at 35 g/ha is 85 to 94%.

Question: And the pest or weed control at 70 g/ha [1, 4]?
Answer: The pest or weed control at 70 g/ha was 85 to 94%.

Question: And the pest or weed control at 140 g/ha [1, 4]?
Answer: Its pest or weed control at 140 g/ha is 95 to 100%.

Question: What about the pest or weed control at 35 g/ha [1, 5] of the same molecule?
Answer: Its pest or weed control at 35 g/ha is 0 to 29%.

Question: What about the pest or weed control at 70 g/ha [1, 5] of the same molecule?
Answer: Its pest or weed control at 70 g/ha is 0 to 29%.

Question: And the pest or weed control at 140 g/ha [1, 5]?
Answer: Its pest or weed control at 140 g/ha is 0 to 29%.

Question: And the pest or weed control at 35 g/ha [1, 6]?
Answer: The pest or weed control at 35 g/ha was 60 to 74%.

Question: And the pest or weed control at 70 g/ha [1, 6]?
Answer: Its pest or weed control at 70 g/ha is 60 to 74%.

Question: What about the pest or weed control at 140 g/ha [1, 6] of the same molecule?
Answer: Its pest or weed control at 140 g/ha is 75 to 84%.

Question: What about the pest or weed control at 35 g/ha [1, 7] of the same molecule?
Answer: Its pest or weed control at 35 g/ha is 0 to 29%.

Question: And the pest or weed control at 70 g/ha [1, 7]?
Answer: Its pest or weed control at 70 g/ha is 30 to 44%.

Question: What about the pest or weed control at 140 g/ha [1, 7] of the same molecule?
Answer: The pest or weed control at 140 g/ha was 45 to 59%.

Question: And the pest or weed control at 35 g/ha [1, 8]?
Answer: Its pest or weed control at 35 g/ha is 95 to 100%.

Question: What about the pest or weed control at 70 g/ha [1, 8] of the same molecule?
Answer: The pest or weed control at 70 g/ha was 95 to 100%.

Question: What about the pest or weed control at 140 g/ha [1, 8] of the same molecule?
Answer: Its pest or weed control at 140 g/ha is 95 to 100%.

Question: What about the melting point of the same molecule?
Answer: The melting point was 165 to 167 °C.

Question: What about the pest or weed control at 35 g/ha [2, 9] of the same molecule?
Answer: The pest or weed control at 35 g/ha was 45 to 59%.

Question: What about the pest or weed control at 70 g/ha [2, 9] of the same molecule?
Answer: The pest or weed control at 70 g/ha was 85 to 94%.

Question: What about the pest or weed control at 140 g/ha [2, 9] of the same molecule?
Answer: The pest or weed control at 140 g/ha was 85 to 94%.

Question: And the pest or weed control at 35 g/ha [2, 10]?
Answer: Its pest or weed control at 35 g/ha is 75 to 84%.

Question: And the pest or weed control at 70 g/ha [2, 10]?
Answer: The pest or weed control at 70 g/ha was 95 to 100%.

Question: And the pest or weed control at 140 g/ha [2, 10]?
Answer: Its pest or weed control at 140 g/ha is 95 to 100%.

Question: And the pest or weed control at 35 g/ha [2, 11]?
Answer: The pest or weed control at 35 g/ha was 0 to 29%.

Question: And the pest or weed control at 70 g/ha [2, 11]?
Answer: Its pest or weed control at 70 g/ha is 30 to 44%.

Question: What about the pest or weed control at 140 g/ha [2, 11] of the same molecule?
Answer: Its pest or weed control at 140 g/ha is 30 to 44%.

Question: And the pest or weed control at 35 g/ha [2, 12]?
Answer: Its pest or weed control at 35 g/ha is 95 to 100%.

Question: And the pest or weed control at 70 g/ha [2, 12]?
Answer: The pest or weed control at 70 g/ha was 95 to 100%.

Question: What about the pest or weed control at 140 g/ha [2, 12] of the same molecule?
Answer: Its pest or weed control at 140 g/ha is 95 to 100%.

Question: What about the pest or weed control at 35 g/ha [2, 13] of the same molecule?
Answer: Its pest or weed control at 35 g/ha is 75 to 84%.

Question: What about the pest or weed control at 70 g/ha [2, 13] of the same molecule?
Answer: The pest or weed control at 70 g/ha was 95 to 100%.

Question: What about the pest or weed control at 140 g/ha [2, 13] of the same molecule?
Answer: The pest or weed control at 140 g/ha was 95 to 100%.

Question: What about the pest or weed control at 35 g/ha [2, 14] of the same molecule?
Answer: Its pest or weed control at 35 g/ha is 75 to 84%.

Question: And the pest or weed control at 70 g/ha [2, 14]?
Answer: Its pest or weed control at 70 g/ha is 85 to 94%.

Question: What about the pest or weed control at 140 g/ha [2, 14] of the same molecule?
Answer: Its pest or weed control at 140 g/ha is 95 to 100%.
